Test results: patent US20250186408A1, “TREATMENT OF PHARMACORESISTANT EPILEPSY” (Katholieke Universiteit Leuven, priority 2021, published 2025)
Read-outs that look alike come from different tables or passages of the source.

Key:
CHRM3 [1] = biological target: T1, CHRM3 (Homo sapiens, UniProt P20309); test: Calcium Flux CHRM3 Agonist; conditions: for Emax: read-out: Max response
Method: (§4) In vitro pharmacological profiling of compounds was done against 78 functional assays for 47 common off-targets (30) by Eurofins DiscoverX Corporation (Fremont, CA, USA) using their SAFETYscan E/IC50 ELECT service (Cat Ref 87-1003DR, Safety47 Panel Dose Response). […] Compounds were tested in a range of 10 concentrations, following a 3-fold serial dilution, starting from 10 μM. The assays were performed utilizing the PathHunter enzyme fragment complementation (EFC) technology, FLIPR®-based cellular screening assays, and KINOMEscan kinase binding assays.
(§5) Prior to testing, cells (10,000 cells/well) were expanded from freezer stocks and seeded into a total volume of 50 μL into black walled, clear-bottom, Poly-D-lysine coated 384-well microplates and incubated at 37° C. […] Assays were performed in 1× dye loading buffer consisting of 1× Dye (DiscoverX, Calcium No Wash^PLUS kit, Catalog No. 90-0091), 1× Additive A and 2.5 mM Probenecid in HBSS/20 mM HEPES. Probenecid was prepared fresh. Prior to testing, media was aspirated from cells and replaced with 25 μL dye loading buffer. Cells were incubated for 45 min at 37° C. and then 20 min at RT. For agonist determination, 25 μL of 2× compound in HBSS/20 mM HEPES was added using a FLIPR Tetra (MDS). For antagonist determination, cells were pre-incubated with sample followed by agonist challenge at the EC80 concentration. 25 μL of 2× sample was added and cells were incubated for 30 min at RT in the dark to equilibrate plate temperature. After incubation, antagonist determination was initiated by addition of 25 μL of 1× compound with 3×EC80 agonist using FLIPR. For both agonist and antagonist formats, activity was measure on a FLIPR Tetra (MDS). Calcium mobilization was monitored for 2 min with a 5 sec baseline read.
(§6) FLIPR read—Area under the curve, was calculated for the entire 2 min read. Compound activity was analysed using CBIS data analysis suite (ChemInnovation, CA).

ADRB2 = ADRB2 (Homo sapiens, UniProt P07550); test: cAMP ADRB2 Agonist; type: cell-based; conditions: for Emax: read-out: Max response
Chain of ADRB2 (P07550 whole entry): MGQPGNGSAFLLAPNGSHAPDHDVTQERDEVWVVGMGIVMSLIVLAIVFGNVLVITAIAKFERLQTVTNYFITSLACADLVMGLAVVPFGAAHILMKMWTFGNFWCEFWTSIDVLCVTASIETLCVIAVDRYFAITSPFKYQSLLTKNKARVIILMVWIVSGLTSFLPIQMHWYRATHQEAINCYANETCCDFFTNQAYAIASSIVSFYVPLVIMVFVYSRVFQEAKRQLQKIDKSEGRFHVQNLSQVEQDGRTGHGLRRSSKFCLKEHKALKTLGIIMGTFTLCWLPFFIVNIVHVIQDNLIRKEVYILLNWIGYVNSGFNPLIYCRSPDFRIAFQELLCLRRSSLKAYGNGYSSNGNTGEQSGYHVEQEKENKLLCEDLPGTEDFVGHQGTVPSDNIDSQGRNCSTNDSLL
Method: (§1) cAMP Hunter cell lines were expanded from freezer stocks. […] For Gi agonist determination, cells were incubated with sample in the presence of EC80 forskolin to induce response. For both conditions, media was aspirated from cells and replaced with 15 μL 2:1 HBSS/10 mM HEPES:cAMP XS+ Ab reagent. […] 5 μL of 4× sample was added to cells and incubated at 37° C. or room temperature (RT) for 30 or 60 min. Final assay vehicle concentration was 1%. […] Media was aspirated from cells and replaced with 10 μL 1:1 HBSS/HEPES:cAMP XS+ Ab reagent. […] For Gi coupled GPCRs, EC80 forskolin was included. […] Compound activity was analyzed using CBIS data analysis suite (ChemInnovation, CA).

CHRM3 [2] = biological target: T1, CHRM3; test: Calcium Flux CHRM3 Antagonist; conditions: for Emax: read-out: Max response
Method: as §4, §5, §6

AVPR1A = AVPR1A (Homo sapiens, UniProt P37288); test: Calcium Flux AVPR1A Antagonist; type: cell-based; conditions: for Emax: read-out: Max response; for IC50: read-out: RC50, result type IC50
Chain of AVPR1A (P37288 whole entry): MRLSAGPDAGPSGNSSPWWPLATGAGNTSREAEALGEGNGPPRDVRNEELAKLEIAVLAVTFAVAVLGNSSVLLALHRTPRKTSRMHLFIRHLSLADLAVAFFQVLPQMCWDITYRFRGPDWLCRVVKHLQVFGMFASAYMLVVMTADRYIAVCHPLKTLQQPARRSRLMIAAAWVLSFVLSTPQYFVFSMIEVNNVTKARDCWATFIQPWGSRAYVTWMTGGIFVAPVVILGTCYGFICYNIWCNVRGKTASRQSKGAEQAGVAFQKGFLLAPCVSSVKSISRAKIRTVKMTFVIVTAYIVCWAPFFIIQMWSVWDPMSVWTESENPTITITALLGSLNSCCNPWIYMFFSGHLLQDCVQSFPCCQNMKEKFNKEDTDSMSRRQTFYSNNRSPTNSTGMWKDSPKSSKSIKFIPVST
Method: (§2) (≤0.2% DMSO concentration). Assays were performed in 1× dye loading buffer consisting of 1× Dye (DiscoverX, Calcium No Wash^PLUS kit, Catalog No. 90-0091), 1× Additive A and 2.5 mM Probenecid in HBSS/20 mM HEPES. Probenecid was prepared fresh. Prior to testing, media was aspirated from cells and replaced with 25 μL dye loading buffer. Cells were incubated for 45 min at 37° C. and then 20 min at RT. For agonist determination, 25 μL of 2× compound in HBSS/20 mM HEPES was added using a FLIPR Tetra (MDS). […] 25 μL of 2× sample was added and cells were incubated for 30 min at RT in the dark to equilibrate plate temperature. After incubation, antagonist determination was initiated by addition of 25 μL of 1× compound with 3×EC80 agonist using FLIPR. For both agonist and antagonist formats, activity was measure on a FLIPR Tetra (MDS). Calcium mobilization was monitored for 2 min with a 5 sec baseline read.
(§3) FLIPR read—Area under the curve, was calculated for the entire 2 min read.

hERG = hERG (Homo sapiens, UniProt Q12809); test: Ion Channel hERG Blocker; type: cell-based; conditions: for Emax at 30 min: human, read-out: Max response; for IC50: read-out: RC50, result type IC50
Chain of hERG (Q12809 whole entry): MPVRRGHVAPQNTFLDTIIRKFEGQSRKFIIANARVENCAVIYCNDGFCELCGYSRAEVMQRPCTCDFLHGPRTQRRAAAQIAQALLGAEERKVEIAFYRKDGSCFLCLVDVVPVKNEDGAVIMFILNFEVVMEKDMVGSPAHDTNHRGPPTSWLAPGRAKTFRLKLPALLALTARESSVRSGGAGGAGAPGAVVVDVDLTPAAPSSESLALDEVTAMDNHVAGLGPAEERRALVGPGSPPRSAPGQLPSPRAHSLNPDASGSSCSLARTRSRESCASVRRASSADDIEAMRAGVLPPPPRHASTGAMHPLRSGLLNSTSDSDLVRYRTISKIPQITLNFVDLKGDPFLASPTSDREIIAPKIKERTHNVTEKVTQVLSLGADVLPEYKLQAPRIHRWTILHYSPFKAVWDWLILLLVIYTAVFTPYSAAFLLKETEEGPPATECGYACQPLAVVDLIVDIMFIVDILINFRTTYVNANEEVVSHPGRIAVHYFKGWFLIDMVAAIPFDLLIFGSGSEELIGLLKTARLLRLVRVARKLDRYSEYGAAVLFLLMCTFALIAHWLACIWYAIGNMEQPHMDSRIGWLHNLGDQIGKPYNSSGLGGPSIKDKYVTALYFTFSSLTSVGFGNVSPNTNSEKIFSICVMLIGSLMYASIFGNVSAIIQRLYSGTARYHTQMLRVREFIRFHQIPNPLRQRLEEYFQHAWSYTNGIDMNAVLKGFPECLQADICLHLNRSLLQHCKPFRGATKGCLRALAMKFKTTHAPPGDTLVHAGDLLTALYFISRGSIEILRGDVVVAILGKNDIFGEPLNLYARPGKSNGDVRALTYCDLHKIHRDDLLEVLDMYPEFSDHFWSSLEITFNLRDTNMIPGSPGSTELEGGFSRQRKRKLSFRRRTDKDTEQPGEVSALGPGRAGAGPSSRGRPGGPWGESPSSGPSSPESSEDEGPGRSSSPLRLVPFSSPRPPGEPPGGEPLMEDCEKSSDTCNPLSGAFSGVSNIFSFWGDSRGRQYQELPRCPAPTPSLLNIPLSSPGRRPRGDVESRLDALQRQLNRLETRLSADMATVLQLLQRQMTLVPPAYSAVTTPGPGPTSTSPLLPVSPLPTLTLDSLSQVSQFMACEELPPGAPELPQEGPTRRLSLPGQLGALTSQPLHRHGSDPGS

INSR = biological target: T2, INSR (Homo sapiens, UniProt P06213); test: Binding (KINOMEscan) INSR Inhibitor; conditions: for Emax: read-out: Max response; for IC50: read-out: RC50, result type IC50
T2 construct: purchased Eurofins DiscoverX Corporation 87-1003DR; host or cells: E. coli BL21-derived host (T7 phage) or HEK-293
T2 sequence (P06213 28-1382): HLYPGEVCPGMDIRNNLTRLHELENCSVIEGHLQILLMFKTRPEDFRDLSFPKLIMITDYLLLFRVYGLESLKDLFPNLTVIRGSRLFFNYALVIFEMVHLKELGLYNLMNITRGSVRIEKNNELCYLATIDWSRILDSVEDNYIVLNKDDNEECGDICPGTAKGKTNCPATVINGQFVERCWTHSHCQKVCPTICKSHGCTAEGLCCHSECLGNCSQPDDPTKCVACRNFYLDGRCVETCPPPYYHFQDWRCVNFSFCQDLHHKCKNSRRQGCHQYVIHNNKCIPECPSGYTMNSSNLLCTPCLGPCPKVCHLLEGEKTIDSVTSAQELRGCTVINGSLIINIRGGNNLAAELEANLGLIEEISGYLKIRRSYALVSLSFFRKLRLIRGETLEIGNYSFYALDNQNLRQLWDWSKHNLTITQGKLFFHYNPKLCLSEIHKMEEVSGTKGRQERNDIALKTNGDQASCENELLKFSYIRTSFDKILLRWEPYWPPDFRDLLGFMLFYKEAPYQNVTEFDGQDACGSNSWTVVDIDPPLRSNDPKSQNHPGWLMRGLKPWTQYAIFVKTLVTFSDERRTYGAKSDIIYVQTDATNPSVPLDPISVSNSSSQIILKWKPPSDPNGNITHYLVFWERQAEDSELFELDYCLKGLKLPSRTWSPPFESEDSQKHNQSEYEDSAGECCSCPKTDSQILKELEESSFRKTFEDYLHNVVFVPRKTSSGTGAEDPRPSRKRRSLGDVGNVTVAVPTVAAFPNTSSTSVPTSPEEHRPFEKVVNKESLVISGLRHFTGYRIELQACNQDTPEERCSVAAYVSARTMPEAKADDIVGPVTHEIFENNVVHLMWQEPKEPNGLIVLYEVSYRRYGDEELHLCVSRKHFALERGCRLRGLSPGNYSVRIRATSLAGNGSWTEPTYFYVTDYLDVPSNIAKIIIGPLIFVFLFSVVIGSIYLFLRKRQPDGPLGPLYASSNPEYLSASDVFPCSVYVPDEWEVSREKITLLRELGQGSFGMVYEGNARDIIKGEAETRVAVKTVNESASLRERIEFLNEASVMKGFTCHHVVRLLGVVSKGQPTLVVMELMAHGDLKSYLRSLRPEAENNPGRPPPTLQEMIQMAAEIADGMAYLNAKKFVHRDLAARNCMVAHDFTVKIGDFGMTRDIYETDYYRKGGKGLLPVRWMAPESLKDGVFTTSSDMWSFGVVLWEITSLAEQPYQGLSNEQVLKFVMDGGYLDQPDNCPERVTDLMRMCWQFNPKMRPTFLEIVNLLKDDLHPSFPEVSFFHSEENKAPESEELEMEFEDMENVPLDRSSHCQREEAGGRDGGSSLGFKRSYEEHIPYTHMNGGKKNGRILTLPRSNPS
Method: For most assays, kinase-tagged T7 phage strains were grown in parallel in 24-well blocks in an E. coli host derived from the BL21 strain. E. coli were grown to log-phase and infected with T7 phage from a frozen stock (multiplicity of infection=0.4) and incubated with shaking at 32° C. until lysis (90-150 min). The lysates were centrifuged (6,000×g) and filtered (0.2 μm) to remove cell debris. The remaining kinases were produced in HEK-293 cells and subsequently tagged with DNA for qPCR detection. Streptavidin-coated magnetic beads were treated with biotinylated small molecule ligands for 30 min at RT to generate affinity resins for kinase assays. The liganded beads were blocked with excess biotin and washed with blocking buffer (SeaBlock (Pierce), 1% BSA, 0.05% Tween 20, 1 mM DTT) to remove unbound ligand and to reduce non-specific phage binding. […] All reactions were performed in polypropylene 384-well plates in a final volume of 0.02 mL. […] The beads were then re-suspended in elution buffer (1×PBS, 0.05% Tween 20, 0.5 μM non-biotinylated affinity ligand) and incubated at RT with shaking for 30 min. The kinase concentration in the eluates was measured by qPCR.
The kinase concentration in the eluates was measured by qPCR. qPCR reactions were assembled by adding 2.5 μL of kinase eluate to 7.5 μL of qPCR master mix containing 0.15 μM amplicon primers and 0.15 μM amplicon probe. The qPCR protocol consisted of a 10 min hot start at 95° C., followed by 35 cycles of 95° C. for 15 sec, 60° C. for 1 min.
Binding constants (Kds) were calculated with a standard dose-response curve using the Hill equation: […]

ADRB1 = ADRB1 (Homo sapiens, UniProt P08588); test: cAMP ADRB1 Antagonist; type: cell-based; conditions: for Emax: read-out: Max response
Chain of ADRB1 (P08588 whole entry): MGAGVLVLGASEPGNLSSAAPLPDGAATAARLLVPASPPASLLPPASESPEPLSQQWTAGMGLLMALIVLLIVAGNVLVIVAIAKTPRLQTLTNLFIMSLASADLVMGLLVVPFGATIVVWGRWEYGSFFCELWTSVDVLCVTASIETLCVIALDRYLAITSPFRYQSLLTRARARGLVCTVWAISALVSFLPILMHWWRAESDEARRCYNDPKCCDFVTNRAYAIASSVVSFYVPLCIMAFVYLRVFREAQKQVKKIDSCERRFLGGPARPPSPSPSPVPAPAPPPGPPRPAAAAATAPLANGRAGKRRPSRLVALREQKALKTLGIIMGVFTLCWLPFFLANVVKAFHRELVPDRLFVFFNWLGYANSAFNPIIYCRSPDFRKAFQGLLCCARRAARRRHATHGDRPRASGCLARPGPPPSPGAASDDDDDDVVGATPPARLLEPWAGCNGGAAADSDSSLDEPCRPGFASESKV
Method: as §1

DRD1 [3] = biological target: T3, DRD1 (Homo sapiens, UniProt P21728); test: cAMP DRD1 Antagonist; conditions: for Emax: read-out: Max response
T3 sequence (P21728 whole entry): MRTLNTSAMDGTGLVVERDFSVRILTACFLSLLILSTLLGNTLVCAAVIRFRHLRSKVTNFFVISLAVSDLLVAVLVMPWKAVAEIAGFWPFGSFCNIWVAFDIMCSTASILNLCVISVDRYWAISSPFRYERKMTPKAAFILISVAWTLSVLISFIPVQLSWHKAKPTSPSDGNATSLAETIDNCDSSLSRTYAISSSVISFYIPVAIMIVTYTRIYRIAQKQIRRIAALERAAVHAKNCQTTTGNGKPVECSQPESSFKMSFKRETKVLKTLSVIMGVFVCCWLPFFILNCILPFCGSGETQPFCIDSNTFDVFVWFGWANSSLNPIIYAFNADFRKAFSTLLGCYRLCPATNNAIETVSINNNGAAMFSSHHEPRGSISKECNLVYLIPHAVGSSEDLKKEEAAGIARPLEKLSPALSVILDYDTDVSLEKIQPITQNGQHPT
Method: In vitro pharmacological profiling of compounds was done against 78 functional assays for 47 common off-targets (30) by Eurofins DiscoverX Corporation (Fremont, CA, USA) using their SAFETYscan E/IC50 ELECT service (Cat Ref 87-1003DR, Safety47 Panel Dose Response). […] Compounds were tested in a range of 10 concentrations, following a 3-fold serial dilution, starting from 10 μM.
(§7) cAMP Hunter cell lines were expanded from freezer stocks. Prior to testing, cells were seeded in a total volume of 20 μL into white walled 384-well microplates and incubated at 37° C. cAMP modulation was determined using the DiscoverX HitHunter cAMP XS+ assay. For Gs agonist determination, cells were incubated with sample to induce response. For Gi agonist determination, cells were incubated with sample in the presence of EC80 forskolin to induce response. For both conditions, media was aspirated from cells and replaced with 15 μL 2:1 HBSS/10 mM HEPES:cAMP XS+ Ab reagent. Intermediate dilution of sample stocks was performed to generate 4× sample in assay buffer (containing 4×EC80 forskolin in the case of antagonist determination). 5 μL of 4× sample was added to cells and incubated at 37° C. or room temperature (RT) for 30 or 60 min. Final assay vehicle concentration was 1%. For antagonist determination, cells were pre-incubated with sample followed by agonist challenge at the EC80 concentration. Media was aspirated from cells and replaced with 10 μL 1:1 HBSS/HEPES:cAMP XS+ Ab reagent. 5 μL of 4× compound was added to the cells and incubated at 37° C. or RT for 30 min. 5 μL of 4×EC80 agonist was added to the cells and incubated at 37° C. or RT for 30 or 60 min. For Gi coupled GPCRs, EC80 forskolin was included. […] Microplates were read following signal generation with a PerkinElmer Envision™ instrument for chemiluminescent signal detection. Compound activity was analyzed using CBIS data analysis suite (ChemInnovation, CA).

ADORA2A = ADORA2A (Homo sapiens, UniProt P29274); test: Calcium Flux ADORA2A Agonist; type: cell-based; conditions: for Emax: read-out: Max response; for EC50: read-out: RC50, result type EC50
Chain of ADORA2A (P29274 whole entry): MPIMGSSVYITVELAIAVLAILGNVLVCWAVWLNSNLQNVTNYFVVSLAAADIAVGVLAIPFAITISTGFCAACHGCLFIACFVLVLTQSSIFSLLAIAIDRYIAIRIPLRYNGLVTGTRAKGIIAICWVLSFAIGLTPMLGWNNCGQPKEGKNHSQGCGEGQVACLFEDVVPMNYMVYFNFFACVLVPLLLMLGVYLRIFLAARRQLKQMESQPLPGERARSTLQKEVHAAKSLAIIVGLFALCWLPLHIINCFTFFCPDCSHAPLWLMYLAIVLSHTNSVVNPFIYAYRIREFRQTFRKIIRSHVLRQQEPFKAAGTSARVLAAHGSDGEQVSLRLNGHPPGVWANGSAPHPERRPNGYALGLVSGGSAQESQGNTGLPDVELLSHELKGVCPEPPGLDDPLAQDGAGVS
Method: as §2, §3

ADRA2A = biological target: T4, ADRA2A (Homo sapiens, UniProt P08913); test: cAMP ADRA2A Agonist; conditions: for Emax: read-out: Max response
T4 sequence (P08913 1-465): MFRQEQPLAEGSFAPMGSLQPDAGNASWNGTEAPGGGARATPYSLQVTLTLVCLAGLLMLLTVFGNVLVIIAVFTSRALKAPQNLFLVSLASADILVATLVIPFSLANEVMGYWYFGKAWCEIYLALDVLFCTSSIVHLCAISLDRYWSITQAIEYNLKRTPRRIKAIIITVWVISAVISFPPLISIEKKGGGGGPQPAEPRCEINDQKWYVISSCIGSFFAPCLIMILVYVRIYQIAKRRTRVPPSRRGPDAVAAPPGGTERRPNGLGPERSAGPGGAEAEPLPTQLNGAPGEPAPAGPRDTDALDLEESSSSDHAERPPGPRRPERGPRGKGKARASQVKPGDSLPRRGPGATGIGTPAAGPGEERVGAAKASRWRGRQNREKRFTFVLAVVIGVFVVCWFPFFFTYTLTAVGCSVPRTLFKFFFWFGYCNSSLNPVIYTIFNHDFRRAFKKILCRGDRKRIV
Method: as §4, §7

DRD1 [4] = biological target: T3, DRD1; test: cAMP DRD1 Agonist; conditions: for Emax: read-out: Max response
Method: as §4, §7

Compound | EC50 (CHRM3 [1]) [µM] | Emax (CHRM3 [1]) [%] | IC50 (CHRM3 [2]) [µM] | Emax (CHRM3 [2]) [%] | IC50 (AVPR1A; Calcium Flux AVPR1A Antagonist) [µM] | Emax at 30 min (hERG) [%] | IC50 (hERG) [µM] | IC50 (INSR; Binding INSR Inhibitor) [µM] | IC50 (DRD1 [3]) [µM] | Emax (DRD1 [3]) [%] | EC50 (ADORA2A; Calcium Flux ADORA2A Agonist) [µM] | EC50 (ADRA2A) [µM] | Emax (ADRA2A) [%] | EC50 (DRD1 [4]) [µM] | Emax (DRD1 [4]) [%] | other results
Clc1cccc(C#Cc2n[nH]c3ncccc23)c1 [Compound 10.1, 3-((3-chlorophenyl)ethynyl)-1H-pyrazolo[3,4-b]pyridine] | > 10 | 2.2 | > 10 | 0 | > 10 | 6.6 | > 10 | > 10 | > 10 | 17.2 | > 10 | > 10 | 20.7 | > 10 | 1.3 | Emax (ADRB2; cAMP ADRB2 Agonist): 0.3%; EC50 (ADRB2; cAMP ADRB2 Agonist, read-out: RC50, result type EC50): > 10 µM; Emax (AVPR1A; Calcium Flux AVPR1A Antagonist): 0%; Emax (INSR; Binding INSR Inhibitor): 0%; Emax (ADRB1; cAMP ADRB1 Antagonist): 40.3%; IC50 (ADRB1; cAMP ADRB1 Antagonist, read-out: RC50, result type IC50): > 10 µM; Emax (ADORA2A; Calcium Flux ADORA2A Agonist): 3%
CC(C)(C)c1ccc(C#CC(O)c2ccccc2)cc1 (racemic) [Compound 3.3, rac-3-(4-(tert-butyl)phenyl)-1-phenylprop-2-yn-1-ol] | > 10 | 0 | > 10 | 0 | > 10 | 3.8 | > 10 | > 10 | > 10 | 2.7 | > 10 | > 10 | 0 | > 10 | 1.2 | EC50 (ADRB2): > 10 µM; Emax (ADRB2): 1.9%; Emax (AVPR1A): 0%; Emax (INSR): 10.3%; IC50 (ADRB1): > 10 µM; Emax (ADRB1): 2.2%; Emax (ADORA2A): 1.8%
